Laboratory results: patent US20230257372A1 (CHONG KUN DANG PHARMACEUTICAL CORP., priority 2020, published 2023)
Read-outs that look alike come from different tables or passages of the source.

What was measured:
human recombinant HDAC6 = target: T1, human recombinant HDAC6 (Homo sapiens, UniProt Q9UBN7); experiment: HDAC6 enzyme activity inhibition (HDAC Fluorimetric Drug Discovery Kit); format: biochemical
T1 construct: purchased Calbiochem Inc. 382180
T1 sequence (Q9UBN7 1-1215): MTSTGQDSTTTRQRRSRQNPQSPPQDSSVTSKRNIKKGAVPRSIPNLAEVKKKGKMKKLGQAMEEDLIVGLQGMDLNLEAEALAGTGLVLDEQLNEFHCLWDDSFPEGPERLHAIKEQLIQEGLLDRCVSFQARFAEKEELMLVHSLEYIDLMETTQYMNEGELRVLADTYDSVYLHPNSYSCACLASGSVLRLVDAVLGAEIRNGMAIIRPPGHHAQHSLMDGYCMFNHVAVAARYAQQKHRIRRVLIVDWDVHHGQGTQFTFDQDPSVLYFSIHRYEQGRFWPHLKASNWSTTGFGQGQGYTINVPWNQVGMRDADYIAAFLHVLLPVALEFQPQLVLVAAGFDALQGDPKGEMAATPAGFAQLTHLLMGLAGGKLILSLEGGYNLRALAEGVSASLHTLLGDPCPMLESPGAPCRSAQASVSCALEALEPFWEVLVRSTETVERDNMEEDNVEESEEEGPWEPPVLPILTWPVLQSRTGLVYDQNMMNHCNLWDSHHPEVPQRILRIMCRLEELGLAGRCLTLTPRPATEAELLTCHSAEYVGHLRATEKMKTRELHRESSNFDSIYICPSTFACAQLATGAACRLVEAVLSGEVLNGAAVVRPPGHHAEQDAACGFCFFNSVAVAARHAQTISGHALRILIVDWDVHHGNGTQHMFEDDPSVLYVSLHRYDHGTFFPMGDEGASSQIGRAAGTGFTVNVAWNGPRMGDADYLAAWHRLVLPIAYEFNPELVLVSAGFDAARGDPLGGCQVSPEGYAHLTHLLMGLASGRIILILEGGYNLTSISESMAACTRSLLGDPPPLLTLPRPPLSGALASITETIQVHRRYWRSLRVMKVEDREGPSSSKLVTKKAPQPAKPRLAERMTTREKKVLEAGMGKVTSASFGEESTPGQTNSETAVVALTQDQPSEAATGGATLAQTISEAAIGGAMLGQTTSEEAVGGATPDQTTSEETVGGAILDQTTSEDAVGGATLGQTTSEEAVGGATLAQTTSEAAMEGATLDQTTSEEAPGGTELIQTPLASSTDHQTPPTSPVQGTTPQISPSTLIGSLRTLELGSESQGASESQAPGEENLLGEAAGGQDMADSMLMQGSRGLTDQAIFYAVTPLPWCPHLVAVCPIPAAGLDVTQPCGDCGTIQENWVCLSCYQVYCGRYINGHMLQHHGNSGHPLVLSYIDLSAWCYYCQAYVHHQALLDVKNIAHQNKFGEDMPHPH
Procedure: (§1) An experiment was conducted to identify the selectivity of the compound represented by formula I of the present invention to HDAC6 through an experiment on HDAC1 and HDAC6 enzyme activity inhibition.
(§2) A 5-fold dilution of the compound was divided into a 96-well plate, after which […] of the enzyme and 10 μM of the substrate were inserted into each well and subjected to reaction at 30° C. for 60 minutes, such that Fluor de Lys® Developer II (BML-KI176) was inserted thereinto and subjected to reaction for 30 minutes and finished.

human recombinant HDAC1 = target: T2, human recombinant HDAC1 (Homo sapiens, UniProt Q13547); experiment: HDAC1 enzyme activity inhibition (HDAC Fluorimetric Drug Discovery Kit); format: biochemical; details: read-out: HDAC1
T2 construct: purchased Enzo Life Science, Inc. BML-SE456
T2 sequence (Q13547 whole entry): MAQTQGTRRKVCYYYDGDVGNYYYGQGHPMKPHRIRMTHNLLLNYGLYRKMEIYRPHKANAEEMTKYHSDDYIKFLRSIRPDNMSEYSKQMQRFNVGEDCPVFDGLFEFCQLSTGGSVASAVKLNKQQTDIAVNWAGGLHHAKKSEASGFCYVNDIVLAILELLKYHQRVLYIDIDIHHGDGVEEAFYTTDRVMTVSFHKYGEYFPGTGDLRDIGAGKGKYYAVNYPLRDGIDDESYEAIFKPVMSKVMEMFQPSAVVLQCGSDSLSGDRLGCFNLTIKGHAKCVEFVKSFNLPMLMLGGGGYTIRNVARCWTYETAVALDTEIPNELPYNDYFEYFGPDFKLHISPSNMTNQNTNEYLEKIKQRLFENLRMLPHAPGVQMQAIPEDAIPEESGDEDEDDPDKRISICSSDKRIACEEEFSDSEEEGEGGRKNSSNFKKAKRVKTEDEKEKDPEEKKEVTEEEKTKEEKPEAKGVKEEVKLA
Procedure: as §1, §2

[1] = human recombinant HDAC6, same protocol as HDAC1
[2] = human recombinant HDAC1, Fluor de Lys substrate, 30° C. 60 minutes
[3] = human recombinant HDAC6, IC50 calculated with GraphPad Prism
[4] = human recombinant HDAC1, IC50 calculated with GraphPad Prism

HDAC6 selectivity (fold) (human recombinant HDAC6; HDAC6 over HDAC1)	IC50 (human recombinant HDAC6; [1]) [nM]	IC50 (human recombinant HDAC1; [2]) [µM]	HDAC6 selectivity (fold) (human recombinant HDAC6; HDAC1 IC50 / HDAC6 IC50)	IC50 (human recombinant HDAC6; [3]) [nM]	IC50 (human recombinant HDAC1; [4]) [µM]	SMILES
801	62.4	> 50	–	–	–	CN1CC(NCc2ccc(-c3cn(Cc4ccc(-c5nnc(C(F)F)o5)cc4)nn3)cc2)C1 [Compound 4557, N-(4-(1-(4-(5-(difluoromethyl)-1,3,4-oxadiazol-2-yl)benzyl)-1H-1,2,3-triazol-4-yl)benzyl)-1-methylazetidin-3-amine]
449	111	> 50	–	–	–	CCN1Cc2cccc(-c3cn(Cc4ccc(-c5nnc(C(F)F)o5)cc4)nn3)c2C1 [Compound 4530, 2-(difluoromethyl)-5-(4-((4-(2-ethylisoindolin-4-yl)-1H-1,2,3-triazol-1-yl)methyl)phenyl)-1,3,4-oxadiazole]
98	505	> 50	–	–	–	Fc1cc(-c2nnc(C(F)F)o2)cnc1Cn1cc(-c2ccccc2CN2CCC2)nn1 [Compound 18822, 2-(6-((4-(2-(azetidin-1-ylmethyl)phenyl)-1H-1,2,3-triazol-1-yl)methyl)-5-fluoropyridin-3-yl)-5-(difluoromethyl)-1,3,4-oxadiazole]
–	–	–	915	54.6	> 50	CN1CC(NCc2ccc(-c3cn(Cc4ccc(-c5nnc(C(F)F)o5)cc4F)nn3)cc2)C1 [Compound 4470, N-(4-(1-(4-(5-(difluoromethyl)-1,3,4-oxadiazol-2-yl)-2-fluorobenzyl)-1H-1,2,3-triazol-4-yl)benzyl)-1-methylazetidin-3-amine]
1381	36.2	> 50	–	–	–	CCN1CC(c2cccc(-c3cn(Cc4ccc(-c5nnc(C(F)F)o5)cc4)nn3)c2)C1 [Compound 4508, 2-(difluoromethyl)-5-(4-((4-(3-(1-ethylazetidin-3-yl)phenyl)-1H-1,2,3-triazol-1-yl)methyl)phenyl)-1,3,4-oxadiazole]
897	55.7	> 50	–	–	–	Fc1cc(-c2nnc(C(F)F)o2)ccc1Cn1cc(-c2ccc(CN3CC[C@@H](F)C3)nc2)nn1 [Compound 17774, (R)-2-(difluoromethyl)-5-(3-fluoro-4-((4-(6-((3-fluoropyrrolidin-1-yl)methyl)pyridin-3-yl)-1H-1,2,3-triazol-1-yl)methyl)phenyl)-1,3,4-oxadiazole]
–	–	–	1329	37.6	> 50	Cc1cncc(-c2cn(Cc3ccc(-c4nnc(C(F)F)o4)cn3)nn2)c1 [Compound 3884, 2-(difluoromethyl)-5-(6-((4-(5-methylpyridin-3-yl)-1H-1,2,3-triazol-1-yl)methyl)pyridin-3-yl)-1,3,4-oxadiazole]
–	–	–	766	65.2	> 50	Fc1cc(-c2nnc(C(F)F)o2)ccc1Cn1cc(-c2ccc(F)c(N3CCNCC3)c2)nn1 [Compound 4397, 2-(difluoromethyl)-5-(3-fluoro-4-((4-(4-fluoro-3-(piperazin-1-yl)phenyl)-1H-1,2,3-triazol-1-yl)methyl)phenyl)-1,3,4-oxadiazole]
1144	43.7	> 50	–	–	–	Fc1cc(-c2nnc(C(F)F)o2)ccc1Cn1cc(-c2ccccn2)nn1 [Compound 18256, 2-(difluoromethyl)-5-(3-fluoro-4-((4-(pyridin-2-yl)-1H-1,2,3-triazol-1-yl)methyl)phenyl)-1,3,4-oxadiazole]
668	74.8	> 50	–	–	–	CN(C)Cc1cc(-c2cn(Cc3ccc(-c4nnc(C(F)F)o4)cc3F)nn2)cs1 [Compound 18188, 1-(4-(1-(4-(5-(difluoromethyl)-1,3,4-oxadiazol-2-yl)-2-fluorobenzyl)-1H-1,2,3-triazol-4-yl)thiophen-2-yl)-N,N-dimethylmethanamine]
–	–	–	206	242	> 50	Fc1cc(-c2nnc(C(F)F)o2)ccc1Cn1cc(-c2cccc(N3C[C@@H]4C[C@H]3CN4)c2)nn1 [Compound 4316, 2-(4-((4-(3-((1S,4S)-2,5-diazabicyclo[2.2.1]heptan-2-yl)phenyl)-1H-1,2,3-triazol-1-yl)methyl)-3-fluorophenyl)-5-(difluoromethyl)-1,3,4-oxadiazole]
980	51	> 50	–	–	–	Fc1cc(-c2nnc(C(F)F)o2)ccc1Cn1cc(-c2ccc(CN3CCC3)nc2)nn1 [Compound 18174, 2-(4-((4-(6-(azetidin-1-ylmethyl)pyridin-3-yl)-1H-1,2,3-triazol-1-yl)methyl)-3-fluorophenyl)-5-(difluoromethyl)-1,3,4-oxadiazole]
–	–	–	228	21.9	> 50	CCCN1CCN(c2cccc(-c3cn(Cc4ccc(-c5nnc(C(F)F)o5)cc4F)nn3)c2)CC1 [Compound 4374, 2-(difluoromethyl)-5-(3-fluoro-4-((4-(3-(4-propylpiperazin-1-yl)phenyl)-1H-1,2,3-triazol-1-yl)methyl)phenyl)-1,3,4-oxadiazole]
2173	23	> 50	–	–	–	FC(F)c1nnc(-c2ccc(Cn3cc(-c4cccc(C5CN(C6CCC6)C5)c4)nn3)cc2)o1 [Compound 4510, 2-(4-((4-(3-(1-cyclobutylazetidin-3-yl)phenyl)-1H-1,2,3-triazol-1-yl)methyl)phenyl)-5-(difluoromethyl)-1,3,4-oxadiazole]
–	–	–	32	1560	> 50	FC(F)c1nnc(-c2ccc(Cn3cc(-c4cccc5[nH]cc(CN6CCOCC6)c45)nn3)nc2)o1 [Compound 4023, 4-((4-(1-((5-(5-(difluoromethyl)-1,3,4-oxadiazol-2-yl)pyridin-2-yl)methyl)-1H-1,2,3-triazol-4-yl)-1H-indol-3-yl)methyl)morpholine]
1567	31.9	> 50	–	–	–	Fc1cc(-c2nnc(C(F)F)o2)ccc1Cn1cc(-c2ccnc(N3CCN(C4COC4)CC3)c2)nn1 [Compound 4636]
1046	47.8	> 50	–	–	–	CN1Cc2cccc(-c3cn(Cc4ccc(-c5nnc(C(F)F)o5)cn4)nn3)c2C1 [Compound 4595, 2-(difluoromethyl)-5-(6-((4-(2-methylisoindolin-4-yl)-1H-1,2,3-triazol-1-yl)methyl)pyridin-3-yl)-1,3,4-oxadiazole]
–	–	–	272	184	> 50	FC(F)c1nnc(-c2ccc(Cc3nnc(-c4ccccc4)o3)cc2)o1 [Compound 3980, 2-(difluoromethyl)-5-(4-((5-phenyl-1,3,4-oxadiazol-2-yl)methyl)phenyl)-1,3,4-oxadiazole]
306	163	> 50	–	–	–	Fc1cc(-c2nnc(C(F)F)o2)cnc1Cn1cc(-c2cncc(CN3CCC3)c2)nn1 [Compound 18882, 2-(6-((4-(5-(azetidin-1-ylmethyl)pyridin-3-yl)-1H-1,2,3-triazol-1-yl)methyl)-5-fluoropyridin-3-yl)-5-(difluoromethyl)-1,3,4-oxadiazole]
773	64.6	> 50	–	–	–	CN(C)C1CCN(Cc2ccc(-c3cn(Cc4ccc(-c5nnc(C(F)F)o5)cc4)nn3)cc2)CC1 [Compound 4554, 1-(4-(1-(4-(5-(difluoromethyl)-1,3,4-oxadiazol-2-yl)benzyl)-1H-1,2,3-triazol-4-yl)benzyl)-N,N-dimethylpiperidin-4-amine]
